Source: ChEMBL document CHEMBL3286192, “Late-Stage C-H Coupling Enables Rapid Identification of HDAC Inhibitors: Synthesis and Evaluation of NCH-31 Analogues” (ACS Med Chem Lett, 2014)
Activity calls are given as the source filed them. The rule behind the calls is not given here.

Columns and labels:
[1] = molecular target: T1, Histone deacetylase 1 (Homo sapiens, UniProt Q13547); details: at 0.1 µM
[2] = molecular target: T2, Protein deacetylase HDAC6 (Homo sapiens, UniProt Q9UBN7); test: Inhibition of human HDAC6 by HDAC-Glo assay
T2 sequence (Q9UBN7 whole entry): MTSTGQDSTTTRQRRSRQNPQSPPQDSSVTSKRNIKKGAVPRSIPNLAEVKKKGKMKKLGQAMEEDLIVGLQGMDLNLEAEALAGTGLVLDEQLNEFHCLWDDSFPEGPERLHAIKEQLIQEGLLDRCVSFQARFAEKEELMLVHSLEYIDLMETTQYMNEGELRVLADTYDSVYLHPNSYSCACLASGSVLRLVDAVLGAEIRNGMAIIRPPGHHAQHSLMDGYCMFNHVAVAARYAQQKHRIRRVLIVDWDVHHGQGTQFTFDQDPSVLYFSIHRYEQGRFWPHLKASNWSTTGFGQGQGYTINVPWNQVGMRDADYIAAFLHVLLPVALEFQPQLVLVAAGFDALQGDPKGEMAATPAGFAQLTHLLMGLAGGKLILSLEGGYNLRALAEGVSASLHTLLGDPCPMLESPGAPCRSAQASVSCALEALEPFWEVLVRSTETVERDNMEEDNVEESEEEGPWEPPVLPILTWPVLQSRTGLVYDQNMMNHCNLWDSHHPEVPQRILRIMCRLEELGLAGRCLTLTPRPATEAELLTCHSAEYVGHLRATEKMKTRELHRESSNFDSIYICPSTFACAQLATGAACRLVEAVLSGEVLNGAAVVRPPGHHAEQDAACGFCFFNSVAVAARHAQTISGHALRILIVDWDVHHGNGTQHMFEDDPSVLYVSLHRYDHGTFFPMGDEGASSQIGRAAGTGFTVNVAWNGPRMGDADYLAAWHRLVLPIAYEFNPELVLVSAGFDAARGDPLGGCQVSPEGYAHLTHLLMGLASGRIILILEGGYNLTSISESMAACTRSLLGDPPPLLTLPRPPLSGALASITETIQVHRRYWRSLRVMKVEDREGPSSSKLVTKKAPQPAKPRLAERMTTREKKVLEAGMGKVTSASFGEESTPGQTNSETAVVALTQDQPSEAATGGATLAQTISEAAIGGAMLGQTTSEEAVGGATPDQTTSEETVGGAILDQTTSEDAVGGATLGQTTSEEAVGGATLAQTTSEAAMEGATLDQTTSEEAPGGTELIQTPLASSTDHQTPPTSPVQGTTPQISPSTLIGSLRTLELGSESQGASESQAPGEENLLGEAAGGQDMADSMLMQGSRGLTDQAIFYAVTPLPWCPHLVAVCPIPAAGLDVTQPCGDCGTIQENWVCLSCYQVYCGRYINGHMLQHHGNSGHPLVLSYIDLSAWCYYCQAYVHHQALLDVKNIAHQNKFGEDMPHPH

[3] = molecular target: T1, Histone deacetylase 1; test: Inhibition of human HDAC1 by HDAC-Glo assay
[4] = molecular target: T3, Histone deacetylase 9 (Homo sapiens, UniProt Q9UKV0); test: Inhibition of human HDAC9 by HDAC-Glo assay
[5] = molecular target: T3, Histone deacetylase 9; test: Inhibition of human HDAC9 at 0.1 uM by HDAC-Glo assay
[6] = molecular target: T4, Protein deacetylase HDAC6 (Homo sapiens) (UniProt Q9UBN7); test: Inhibition of human HDAC6 at 1 uM by HDAC-Glo assay
T4 sequence (whole entry): T2 sequence (Q9UBN7 whole entry)

T1 sequence (Q13547 whole entry): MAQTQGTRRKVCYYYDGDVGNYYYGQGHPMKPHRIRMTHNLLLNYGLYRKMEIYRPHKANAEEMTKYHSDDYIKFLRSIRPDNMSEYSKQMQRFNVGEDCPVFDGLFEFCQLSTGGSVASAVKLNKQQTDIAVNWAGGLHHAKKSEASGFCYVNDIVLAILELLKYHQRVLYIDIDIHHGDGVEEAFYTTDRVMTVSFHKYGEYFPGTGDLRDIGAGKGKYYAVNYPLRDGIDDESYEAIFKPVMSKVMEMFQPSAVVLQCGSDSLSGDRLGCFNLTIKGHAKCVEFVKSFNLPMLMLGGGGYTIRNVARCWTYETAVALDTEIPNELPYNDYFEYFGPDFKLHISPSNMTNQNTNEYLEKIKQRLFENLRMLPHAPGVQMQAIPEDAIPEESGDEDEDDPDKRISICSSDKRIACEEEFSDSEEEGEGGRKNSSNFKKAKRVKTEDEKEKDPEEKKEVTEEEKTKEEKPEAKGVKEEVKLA
T3 sequence (Q9UKV0 whole entry): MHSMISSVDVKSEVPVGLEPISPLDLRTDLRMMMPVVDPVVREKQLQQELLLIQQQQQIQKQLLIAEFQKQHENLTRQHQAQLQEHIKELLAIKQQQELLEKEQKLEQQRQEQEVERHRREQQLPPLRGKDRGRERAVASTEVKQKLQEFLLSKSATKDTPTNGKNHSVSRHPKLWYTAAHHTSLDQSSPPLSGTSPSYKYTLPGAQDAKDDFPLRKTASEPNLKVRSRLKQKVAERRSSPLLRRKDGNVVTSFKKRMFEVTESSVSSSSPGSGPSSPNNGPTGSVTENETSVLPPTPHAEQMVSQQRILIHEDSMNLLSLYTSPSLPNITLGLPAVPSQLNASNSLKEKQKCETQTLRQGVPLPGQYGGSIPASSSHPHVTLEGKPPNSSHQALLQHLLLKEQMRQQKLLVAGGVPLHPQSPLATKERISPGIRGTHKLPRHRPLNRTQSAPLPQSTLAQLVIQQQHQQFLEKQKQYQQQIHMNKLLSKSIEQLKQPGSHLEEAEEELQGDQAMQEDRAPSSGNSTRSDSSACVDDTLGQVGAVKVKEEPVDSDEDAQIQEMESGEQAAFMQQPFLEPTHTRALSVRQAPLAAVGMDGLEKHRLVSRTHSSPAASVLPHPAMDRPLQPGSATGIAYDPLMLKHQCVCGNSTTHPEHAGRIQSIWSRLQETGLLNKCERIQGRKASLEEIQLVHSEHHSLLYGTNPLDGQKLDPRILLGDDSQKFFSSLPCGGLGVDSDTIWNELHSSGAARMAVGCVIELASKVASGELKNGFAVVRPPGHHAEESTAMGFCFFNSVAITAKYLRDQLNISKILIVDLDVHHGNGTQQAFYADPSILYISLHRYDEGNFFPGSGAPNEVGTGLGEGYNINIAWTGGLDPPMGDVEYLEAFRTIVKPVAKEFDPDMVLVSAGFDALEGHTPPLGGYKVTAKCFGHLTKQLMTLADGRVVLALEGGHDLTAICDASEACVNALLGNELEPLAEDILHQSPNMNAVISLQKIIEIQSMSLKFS

With COc1cc(OC)cc(-c2csc(NC(=O)CCCCCCS)n2)c1 the inhibition [1] was “Active”.

With CCCCc1ccc(-c2csc(NC(=O)CCCCCCS)n2)cc1 the inhibition [1] was “Active”.

With Cc1ccc(-c2csc(NC(=O)CCCCCCS)n2)cc1F the IC50 [2] was 6100 nM, the IC50 [3] was 50 nM and the IC50 [4] was 62 nM. The inhibition [5] was “Active” and the inhibition [1] was “Active”.

COc1cccc(-c2csc(NC(=O)CCCCCCS)n2)c1 was tested, and the inhibition [6] was 70% and the inhibition [1] was “Active”.

In the case of Cc1ccc(-c2csc(NC(=O)CCCCCCS)n2)cc1, the IC50 [3] is reported as 57 nM, the IC50 [4] is reported as 42 nM and the inhibition [5] is reported as “Active”. For the same compound, the inhibition [1] was “Active”.

O=C(CCCCCCS)Nc1nc(-c2cccc(F)c2)cs1 gave an IC50 [2] of 150 nM, an IC50 [3] of 49 nM and an inhibition [6] of 70%. The IC50 [4] was 78 nM, the inhibition [5] was “Active” and the inhibition [1] was “Active”.

For Cc1cccc(-c2csc(NC(=O)CCCCCCS)n2)c1, the inhibition [1] was “Active”.

CN(C(=O)CCCCCCS)c1nc(-c2ccccc2)cs1 was tested, and the inhibition [1] was “inactive”.

With O=C(CCCCCCS)Nc1nc(-c2cccc(Cl)c2)cs1 the inhibition [1] was “Active”.

COc1ccc(-c2csc(NC(=O)CCCCCCS)n2)cc1C was tested, and the inhibition [1] was “Active”.

With CC(C)(C)c1ccc(-c2csc(NC(=O)CCCCCCS)n2)cc1 the inhibition [1] was “Active”.

With COc1ccc(-c2csc(NC(=O)CCCCCCS)n2)cc1 the inhibition [1] was “Active”.

With O=C(CCCCCCS)Nc1nc(-c2ccc(F)cc2)cs1 the IC50 [2] was 550 nM, the IC50 [3] was 36 nM and the IC50 [4] was 57 nM. For the same compound, the inhibition [5] was “Active” and the inhibition [1] was “Active”.

With Cc1cc(C)cc(-c2csc(NC(=O)CCCCCCS)n2)c1 the inhibition [1] was “Active”.

With O=C(CCCCCCS)Nc1nc(-c2ccc(OC(F)(F)F)cc2)cs1 the inhibition [1] was “Active”.

O=C(CCCCCCS)Nc1nc(-c2ccccc2)cs1 showed an IC50 [2] of 230 nM, an IC50 [3] of 96 nM and an IC50 [4] of 82 nM.

In the case of COc1c(C)cc(-c2csc(NC(=O)CCCCCCS)n2)cc1C, the inhibition [1] is reported as “Active”.
